Measurements taken from patent US20090311217A1, “3-SUBSTITUTED-1H-INDOLE COMPOUNDS, THEIR USE AS MTOR KINASE AND PI3 KINASE INHIBITORS, AND THEIR SYNTHESES” (priority 2008, published 2009).
pIC50: −log10 of the molar value. Where two headings read alike, the source gives them in different places.

Tests used:
Format in all cases: biochemical
human TOR = target: T1, human TOR (Homo sapiens, UniProt P42345); experiment: mTOR enzyme assay (DELFIA, His6-S6K substrate); conditions: read-out: mTOR Kinase Avg. IC50
T1 construct: FLAG

PI3K-alpha = PI3K-alpha (Homo sapiens, UniProt P42336); experiment: PI3K-alpha fluorescence polarization assay
PI3K-alpha, sequence (P42336 whole entry, species assumed): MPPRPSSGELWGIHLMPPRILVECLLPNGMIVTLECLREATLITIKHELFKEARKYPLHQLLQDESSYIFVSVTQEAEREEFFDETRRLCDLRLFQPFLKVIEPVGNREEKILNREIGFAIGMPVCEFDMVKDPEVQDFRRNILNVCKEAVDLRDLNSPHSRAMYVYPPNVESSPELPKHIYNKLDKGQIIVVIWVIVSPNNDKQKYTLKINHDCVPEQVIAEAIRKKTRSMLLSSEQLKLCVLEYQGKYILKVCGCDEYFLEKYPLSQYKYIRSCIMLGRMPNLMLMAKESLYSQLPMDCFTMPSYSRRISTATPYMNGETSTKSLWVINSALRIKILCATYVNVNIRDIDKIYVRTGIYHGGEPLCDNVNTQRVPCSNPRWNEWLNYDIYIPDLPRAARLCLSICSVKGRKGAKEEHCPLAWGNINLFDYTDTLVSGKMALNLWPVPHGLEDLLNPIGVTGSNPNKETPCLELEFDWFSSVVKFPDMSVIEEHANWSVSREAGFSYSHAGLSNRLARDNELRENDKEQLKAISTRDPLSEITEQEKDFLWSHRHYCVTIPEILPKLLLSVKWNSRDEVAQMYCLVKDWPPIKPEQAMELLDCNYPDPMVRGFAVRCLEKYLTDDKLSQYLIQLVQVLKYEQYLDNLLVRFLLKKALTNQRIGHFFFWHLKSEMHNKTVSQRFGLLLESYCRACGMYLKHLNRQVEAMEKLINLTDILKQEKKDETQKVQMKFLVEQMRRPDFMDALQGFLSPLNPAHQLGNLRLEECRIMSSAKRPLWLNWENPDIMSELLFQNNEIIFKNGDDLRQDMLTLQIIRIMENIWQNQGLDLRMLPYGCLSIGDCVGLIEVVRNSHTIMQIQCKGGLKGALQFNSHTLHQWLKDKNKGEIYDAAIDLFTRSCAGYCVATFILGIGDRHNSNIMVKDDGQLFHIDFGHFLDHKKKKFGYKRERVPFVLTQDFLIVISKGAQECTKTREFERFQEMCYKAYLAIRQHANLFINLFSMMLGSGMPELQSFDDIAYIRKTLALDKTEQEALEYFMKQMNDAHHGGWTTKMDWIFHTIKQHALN
PI3K-alpha, sequence (P27986 whole entry partner, species assumed): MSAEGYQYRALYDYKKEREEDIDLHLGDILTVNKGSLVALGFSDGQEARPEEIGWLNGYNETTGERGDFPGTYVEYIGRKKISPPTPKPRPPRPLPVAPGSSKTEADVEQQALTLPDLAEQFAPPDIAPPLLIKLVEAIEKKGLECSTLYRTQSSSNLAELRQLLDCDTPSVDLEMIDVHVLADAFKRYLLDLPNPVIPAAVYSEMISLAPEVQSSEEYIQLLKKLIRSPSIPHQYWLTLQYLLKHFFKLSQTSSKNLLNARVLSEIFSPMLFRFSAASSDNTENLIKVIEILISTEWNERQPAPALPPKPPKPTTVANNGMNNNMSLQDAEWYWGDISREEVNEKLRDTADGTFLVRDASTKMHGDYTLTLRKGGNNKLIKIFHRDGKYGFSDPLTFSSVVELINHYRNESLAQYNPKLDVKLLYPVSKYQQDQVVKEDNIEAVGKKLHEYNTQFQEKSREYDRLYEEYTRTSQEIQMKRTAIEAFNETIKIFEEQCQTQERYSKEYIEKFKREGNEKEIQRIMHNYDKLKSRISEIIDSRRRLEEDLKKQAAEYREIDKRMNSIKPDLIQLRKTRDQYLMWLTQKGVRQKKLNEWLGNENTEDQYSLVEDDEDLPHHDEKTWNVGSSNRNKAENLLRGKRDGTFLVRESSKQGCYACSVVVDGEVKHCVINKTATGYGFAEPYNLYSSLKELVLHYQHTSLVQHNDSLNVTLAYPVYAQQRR

PI3K-gamma = PI3K-gamma (Homo sapiens, UniProt P48736); experiment: PI3K-gamma fluorescence polarization assay; conditions: PI3Kγ Avg. IC50
PI3K-gamma, sequence (P48736 whole entry, species assumed, the tested form may be a part): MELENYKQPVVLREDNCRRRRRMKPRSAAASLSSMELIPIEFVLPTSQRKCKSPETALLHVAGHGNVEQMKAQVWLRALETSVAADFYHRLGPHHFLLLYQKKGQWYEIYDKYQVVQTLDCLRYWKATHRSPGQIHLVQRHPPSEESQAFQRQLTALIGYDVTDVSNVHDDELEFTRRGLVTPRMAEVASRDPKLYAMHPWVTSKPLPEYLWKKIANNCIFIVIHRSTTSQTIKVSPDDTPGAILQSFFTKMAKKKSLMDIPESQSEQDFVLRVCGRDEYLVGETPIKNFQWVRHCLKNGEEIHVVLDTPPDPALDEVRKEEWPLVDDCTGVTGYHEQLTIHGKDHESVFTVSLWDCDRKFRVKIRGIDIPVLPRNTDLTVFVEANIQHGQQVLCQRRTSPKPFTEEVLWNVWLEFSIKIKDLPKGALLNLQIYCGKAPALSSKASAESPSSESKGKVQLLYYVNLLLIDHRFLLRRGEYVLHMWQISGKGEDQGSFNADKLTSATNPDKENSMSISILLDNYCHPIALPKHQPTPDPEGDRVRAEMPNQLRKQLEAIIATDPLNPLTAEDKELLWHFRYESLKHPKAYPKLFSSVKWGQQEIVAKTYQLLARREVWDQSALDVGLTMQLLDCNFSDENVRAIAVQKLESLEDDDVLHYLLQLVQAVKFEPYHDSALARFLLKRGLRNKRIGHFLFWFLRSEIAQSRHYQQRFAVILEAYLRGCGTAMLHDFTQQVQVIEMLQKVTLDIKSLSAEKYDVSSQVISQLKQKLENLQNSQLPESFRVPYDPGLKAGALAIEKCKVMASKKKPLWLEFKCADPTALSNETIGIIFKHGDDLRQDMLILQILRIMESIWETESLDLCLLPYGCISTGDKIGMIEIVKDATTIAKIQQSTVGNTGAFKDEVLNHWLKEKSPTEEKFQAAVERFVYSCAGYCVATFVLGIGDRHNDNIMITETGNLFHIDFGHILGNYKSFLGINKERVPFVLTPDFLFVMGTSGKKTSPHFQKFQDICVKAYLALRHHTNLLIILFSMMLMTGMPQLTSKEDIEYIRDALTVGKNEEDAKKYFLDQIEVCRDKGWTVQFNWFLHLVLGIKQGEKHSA
In short: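 FP competition read-out: PIP3 produced displaces BODIPY-TMR-IP4 (5 nM) from GST-GRP1 PH domain (100 nM). Kinase step: 5 ng enzyme, 2.5 μM diC8-PIP2, 25 μM ATP, pH 7 HEPES/MgCl2, 1 h, 25° C; EDTA stop.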

SMILES | pIC50 (human TOR) | pIC50 (PI3K-alpha; read-out: PI3Kα Avg. IC50) | pIC50 (PI3K-gamma) | pIC50 (PI3K-alpha; PI3Kα Avg. IC50)
CNC(=O)Nc1ccc2c(c1)C(=O)/C(=C/c1c(-c3c(OC)cccc3OC)[nH]c3ccc(OC)cc13)O2 [Compound 637, 1-[(2Z)-2-{[2-(2,6-dimethoxyphenyl)-5-methoxy-1H-indol-3-yl]methylene}-3-oxo-2,3-dihydro-1-benzofuran-5-yl]-3-methylurea] | 7.46 | 8.66 | 7.73 | –
CCn1c(C)c(/C=C2\Oc3ccc(NC(=O)Nc4ccc(C(=O)NCCCN(C)C)cc4)cc3C2=O)c2cc(OC)ccc21 [Compound 666, N-[3-(dimethylamino)propyl]-4-[({(2Z)-2-[(1-ethyl-5-methoxy-2-methyl-1H-indol-3-yl)methylidene]-3-oxo-2,3-dihydro-1-benzofuran-5-yl}carbamoyl)amino]benzamide] | 7.47 | 9.10 | 8.35 | –
COc1cc(F)c2[nH]c(-c3c(C)nn(C)c3C)c(/C=C3\Oc4ccc(NC(=O)Nc5ccc(C(=O)NCCN(C)C)cc5)cc4C3=O)c2c1 [Compound 733, N-[2-(dimethylamino)ethyl]-4-({[(2Z)-2-{[7-fluoro-5-methoxy-2-(1,3,5-trimethyl-1H-pyrazol-4-yl)-1H-indol-3-yl]methylidene}-3-oxo-2,3-dihydro-1-benzofuran-5-yl]carbamoyl}amino)benzamide] | > 9.00 | 9.52 | 8.52 | –
COc1ccc2[nH]c(C3CCCCC3)c(/C=C3\Oc4ccc(NC(=O)Nc5ccc(C(=O)N(C)CCN(C)C)cc5)cc4C3=O)c2c1 [Compound 688, 4-[({(2Z)-2-[(2-cyclohexyl-5-methoxy-1H-indol-3-yl)methylidene]-3-oxo-2,3-dihydro-1-benzofuran-5-yl}carbamoyl)amino]-N-[2-(dimethylamino)ethyl]-N-methylbenzamide] | 8.22 | 9.52 | 8.71 | –
COc1ccc2[nH]c(-c3c(C)nn(C)c3C)c(/C=C3\Oc4ccc(NC(=O)Nc5ccc(N(C)C(=O)CCN(C)C)cc5)cc4C3=O)c2c1 [Compound 696, N-(4-{[(2-{[5-methoxy-2-(1,3,5-trimethyl-1H-pyrazol-4-yl)-1H-indol-3-yl]methylidene}-3-oxo-2,3-dihydro-1-benzofuran-5-yl)carbamoyl]amino}phenyl)-N,N3,N3-trimethyl-b-alaninamide] | 8.30 | 8.52 | 7.32 | –
COc1ccc2[nH]c(-c3c(C)nn(C)c3C)c(/C=C3\Oc4ccc(NC(=O)Nc5cccc(C(=O)N(C)CCCN(C)C)c5)cc4C3=O)c2c1 [Compound 708, N-[3-(dimethylamino)propyl]-3-({[(2Z)-2-{[5-methoxy-2-(1,3,5-trimethyl-1H-pyrazol-4-yl)-1H-indol-3-yl]methylidene}-3-oxo-2,3-dihydro-1-benzofuran-5-yl]carbamoyl}amino)-N-methylbenzamide] | 6.94 | 7.38 | 6.45 | –
CNC(=O)Nc1ccc2c(c1)C(=O)/C(=C/c1c(-c3c(C)nn(C)c3C)n(CCN(C)C)c3ccc(OC)cc13)O2 [Compound 673, 1-[(2Z)-2-({1-[2-(dimethylamino)ethyl]-5-methoxy-2-(1,3,5-trimethyl-1H-pyrazol-4-yl)-1H-indol-3-yl}methylidene)-3-oxo-2,3-dihydro-1-benzofuran-5-yl]-3-methylurea] | 7.22 | 7.90 | 7.21 | –
COc1ccc2[nH]c(-c3c(C)nn(C)c3C)c(/C=C3\Oc4ccc(NC(=O)Nc5ccc(C(=O)N(C)C6CCN(C)C6)cc5)cc4C3=O)c2c1 (stereo not drawn) [Compound 698, 4-({[(2Z)-2-{[5-methoxy-2-(1,3,5-trimethyl-1H-pyrazol-4-yl)-1H-indol-3-yl]methylidene}-3-oxo-2,3-dihydro-1-benzofuran-5-yl]carbamoyl}amino)-N-methyl-N-(1-methylpyrrolidin-3-yl)benzamide] | 9.00 | 9.52 | 8.52 | –
COc1cc(F)c2[nH]c(-c3c(C)nn(C)c3C)c(/C=C3\Oc4ccc(NC(=O)NCCN)cc4C3=O)c2c1 [Compound 715, 1-(2-aminoethyl)-3-[(2Z)-2-{[7-fluoro-5-methoxy-2-(1,3,5-trimethyl-1H-pyrazol-4-yl)-1H-indol-3-yl]methylidene}-3-oxo-2,3-dihydro-1-benzofuran-5-yl]urea] | 9.00 | 9.30 | 8.59 | –
COc1ccc2c(c1)c(/C=C1\Oc3ccc(NC(=O)Nc4ccc(N(C)C)cc4)cc3C1=O)c(C)n2CCN1CCN(C)CC1 [Compound 633, 1-[4-(dimethylamino)phenyl]-3-[(2Z)-2-({5-methoxy-2-methyl-1-[2-(4-methylpiperazin-1-yl)ethyl]-1H-indol-3-yl}methylidene)-3-oxo-2,3-dihydro-1-benzofuran-5-yl]urea] | 6.65 | 8.41 | 5.72 | –
COc1ccc2c(c1)c(/C=C1\Oc3ccc(NC(=O)Nc4ccc(C(=O)N5CCOCC5)cc4)cc3C1=O)c(C)n2CCN1CCN(C)CC1 [Compound 687, 1-[(2Z)-2-({5-methoxy-2-methyl-1-[2-(4-methylpiperazin-1-yl)ethyl]-1H-indol-3-yl}methylidene)-3-oxo-2,3-dihydro-1-benzofuran-5-yl]-3-[4-(morpholin-4-ylcarbonyl)phenyl]urea] | 7.06 | 8.96 | 7.36 | –
O=C1/C(=C/c2c(-c3ccc(Cl)cc3)[nH]c3ccccc23)Oc2cc(O)cc(O)c21 [Example 44, (2Z)-2-{[2-(4-chlorophenyl)-1H-indol-3-yl]methylene}-4,6-dihydroxy-1-benzofuran-3(2H)-one] | 6.72 | – | 5.84 | 6.27

Continued, in another order:

pIC50 (human TOR) | pIC50 (PI3K-alpha; read-out: PI3Kα Avg. IC50) | pIC50 (PI3K-gamma) | SMILES | pIC50 (PI3K-alpha; PI3Kα Avg. IC50)
5.89 | 7.49 | 6.29 | COc1ccc2c(c1)c(/C=C1\Oc3cc(O)ccc3C1=O)c(C)n2CCN1CCCCC1 [Example 454, (2Z)-6-Hydroxy-2-{[5-methoxy-2-methyl-1-(2-piperidin-1-ylethyl)-1H-indol-3-yl]methylene}-1-benzofuran-3(2H)-one] | –
6.14 | 6.00 | 6.12 | COc1ccc(-c2cccc3[nH]cc(/C=C4\Oc5cc(O)cc(O)c5C4=O)c23)cc1 [Example 371, (2Z)-4,6-dihydroxy-2-{[4-(4-methoxyphenyl)-1H-indol-3-yl]methylene}benzofuran-3(2H)-one] | –
4.80 | 6.17 | 5.42 | COc1ccc2[nH]cc(/C=C3\Oc4c(ccc(O)c4O)C3=O)c2c1 [Example 62, (2Z)-6,7-dihydroxy-2-[(5-methoxy-1H-indol-3-yl)methylene]-1-benzofuran-3(2H)-one] | –
5.19 | 7.74 | 5.86 | COc1ccc2c(c1)c(/C=C1\Oc3cc(O)ccc3C1=O)c(C)n2CCCN1CCC(C)CC1 [Example 460, (2Z)-6-Hydroxy-2-({5-methoxy-2-methyl-1-[3-(4-methylpiperidin-1-yl)propyl]-1H-indol-3-yl}methylene)-1-benzofuran-3(2H)-one] | –
< 4.70 | 5.02 | 5.52 | COc1ccc2c(c1)c(/C=C1\Oc3cc(-c4cnc(N)nc4)ccc3C1=O)cn2CCCN(C)C [Example 427, (2Z)-6-(2-Aminopyrimidin-5-yl)-2-({1-[3-(dimethylamino)propyl]-5-methoxy-1H-indol-3-yl}methylene)-1-benzofuran-3(2H)-one] | –
7.59 | 6.13 | 5.52 | CC(=O)c1ccc(-c2cccc3c2c(/C=C2\Oc4cc(O)cc(O)c4C2=O)cn3C)cc1 [Example 372, (2Z)-2-{[4-(4-Acetylphenyl)-1-methyl-1H-indol-3-yl]methylene}-4,6-dihydroxy-1-benzofuran-3(2H)-one] | –
< 4.70 | 6.87 | 5.36 | COc1ccc2c(c1)c(/C=C1\Oc3cc(O)c(C)cc3C1=O)c(C)n2CCN1CCN(C)CC1 [Example 458, (2Z)-6-Hydroxy-2-({5-methoxy-2-methyl-1-[2-(4-methylpiperazin-1-yl)ethyl]-1H-indol-3-yl}methylene)-5-methyl-1-benzofuran-3(2H)-one] | –
7.64 | 7.40 | 6.75 | COc1ccc2c(c1)c(/C=C1\Oc3cc(O)cc(O)c3C1=O)c(C)n2CC(=O)N(C)C [Example 322, 2-{3-[(Z)-(4,6-Dihydroxy-3-oxo-1-benzofuran-2(3H)-ylidene)methyl]-5-methoxy-2-methyl-1H-indol-1-yl}-N,N-dimethylacetamide] | –
7.74 | 5.55 | 5.12 | CN(C)c1ccc(-c2cccc3c2c(/C=C2\Oc4cc(O)cc(O)c4C2=O)cn3C)cc1 [Example 385, (2Z)-2-({4-[4-(Dimethylamino)phenyl]-1-methyl-1H-indol-3-yl}methylene)-4,6-dihydroxy-1-benzofuran-3(2H)-one] | –
< 4.70 | 5.05 | 5.12 | COc1ccc2c(c1)c(/C=C1\Oc3cc(NS(C)(=O)=O)ccc3C1=O)cn2CCCN(C)C [Example 422, N-(2Z)-[2-({1-[3-(Dimethylamino)propyl]-5-methoxy-1H-indol-3-yl}methylene)-3-oxo-2,3-dihydro-1-benzofuran-6-yl]methanesulfonamide] | –
7.62 | 5.97 | < 5.00 | Cn1cc(/C=C2\Oc3cc(O)cc(O)c3C2=O)c2c(-c3ccccc3N)cccc21 [Example 419, (2Z)-2-{[4-(2-Aminophenyl)-1-methyl-1H-indol-3-yl]methylene}-4,6-dihydroxy-1-benzofuran-3(2H)-one] | –
5.60 | 5.82 | 5.61 | O=C1C(=Cc2c(-c3ccccc3)n(CCN3CCCC3)c3ccccc23)Oc2cc(O)cc(O)c21 [Example 157, 4,6-dihydroxy-2-{[2-phenyl-1-(2-pyrrolidin-1-ylethyl)-1H-indol-3-yl]methylene}-1-benzofuran-3(2H)-one] | –
